Assay results as given in the CheMixHub viscosity set.

Assay: xn = mol fraction of the nth substance listed

CC(C)CCC[C@@H](C)[C@H]1CC[C@H]2[C@@H]3CC=C4C[C@@H](O)CC[C@]4(C)[C@H]3CC[C@]12C + c1ccccc1
viscosity [mPa·s], 101.33 kPa
Conditions	x1 = 0.00346	x1 = 0.00447	x1 = 0.00753	x1 = 0.008796	x1 = 0.01276	x1 = 0.01496	x1 = 0.01612	x1 = 0.01894	x1 = 0.02302
298 K	0.617	0.624	0.643	0.651	0.681	0.698	0.708	0.733	0.773
303 K	0.574	0.579	0.598	0.607	0.633	0.647	0.657	0.677	0.714
313 K	0.506	0.509	0.525	0.529	0.552	0.565	0.571	0.588	0.614
323 K	0.448	0.453	0.466	0.472	0.489	0.499	0.504	0.517	0.541

CCCCCCCCCCCC + c1ccccc1
Conditions	viscosity [mPa·s]
295.15 K, 100 kPa, x2 = 0.3903	1.047
298 K, 101 kPa, x2 = 0.5	0.9053
298.15 K, 101.33 kPa, x1 = 0.04733	0.6259
298.15 K, 101.33 kPa, x1 = 0.1084	0.6476
298.15 K, 101.33 kPa, x1 = 0.2036	0.6913
298.15 K, 101.33 kPa, x1 = 0.2978	0.7491
298.15 K, 101.33 kPa, x1 = 0.4139	0.8308
298.15 K, 101.33 kPa, x1 = 0.5192	0.9153
298.15 K, 101.33 kPa, x1 = 0.6155	0.9976
298.15 K, 101.33 kPa, x1 = 0.7291	1.102
298.15 K, 101.33 kPa, x1 = 0.8011	1.168
298.15 K, 101.33 kPa, x1 = 0.9231	1.291
298.38 K, 101.3 kPa, x1 = 0.5002	0.8885
298.52 K, 101.3 kPa, x1 = 0.2502	0.7103
298.76 K, 101.3 kPa, x1 = 0.7496	1.097
298.77 K, 101.3 kPa, x1 = 0.7496	1.096
298.79 K, 101.3 kPa, x1 = 0.7496	1.095
299.49 K, 101.3 kPa, x1 = 0.5002	0.8746
308.08 K, 101.3 kPa, x1 = 0.5002	0.775
308.51 K, 101.3 kPa, x1 = 0.2502	0.6242
308.9 K, 101.3 kPa, x1 = 0.7496	0.9482
318 K, 101 kPa, x2 = 0.5	0.6904
322.92 K, 101.3 kPa, x1 = 0.5002	0.6451
322.94 K, 101.3 kPa, x1 = 0.2502	0.5262

Cc1ccccc1C + c1ccccc1
viscosity [mPa·s]
Conditions	293.15 K	303.15 K	308.15 K	313.15 K	318.15 K	323.15 K
101 kPa, x2 = 0.1	–	0.657	0.622	0.594	0.572	–
101 kPa, x2 = 0.2	–	0.665	0.631	0.597	0.573	–
101 kPa, x2 = 0.4	–	0.69	0.668	0.599	0.574	–
101 kPa, x2 = 0.6	–	0.652	0.623	0.592	0.55	–
101 kPa, x2 = 0.802	–	0.645	0.61	0.577	0.552	–
101 kPa, x2 = 0.902	–	0.67	0.641	0.623	0.587	–
101.33 kPa, x2 = 0.1	–	0.657	0.622	0.594	0.572	–
101.33 kPa, x2 = 0.2	–	0.665	0.631	0.597	0.573	–
101.33 kPa, x2 = 0.2114	0.749	0.657	–	0.583	–	0.519
101.33 kPa, x2 = 0.4	–	0.69	0.668	0.599	0.574	–
101.33 kPa, x2 = 0.4129	0.71	0.625	–	0.554	–	0.493
101.33 kPa, x2 = 0.5938	0.685	0.601	–	0.531	–	0.474
101.33 kPa, x2 = 0.6	–	0.652	0.623	0.592	0.55	–
101.33 kPa, x2 = 0.7195	0.669	0.585	–	0.517	–	0.461
101.33 kPa, x2 = 0.802	–	0.645	0.61	0.577	0.552	–
101.33 kPa, x2 = 0.8514	0.658	0.575	–	0.506	–	0.45
101.33 kPa, x2 = 0.902	–	0.67	0.641	0.623	0.587	–

c1cc[nH]c1 + c1ccccc1
viscosity [mPa·s], 101 kPa
Conditions	x1 = 0.05439	x1 = 0.06772	x1 = 0.1099
303.15 K	0.576	0.579	0.59
323.15 K	0.445	0.452	0.459

NC(N)=O + c1ccncc1
Conditions	viscosity [mPa·s]
298.15 K, 101 kPa, x1 = 0.012	0.939
